One assay deals with T1, BRAF V600E (Homo sapiens, UniProt P15056, V600E).
T1 construct: expressed in transfected cells
Briefly: Cellular assay of target protein degradation, T-Rex 293 cells stably transfected with HA-BRAF_V600E (HA immunofluorescence, high content imaging). Type of assay: cell-based. The gist of the method:
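Degradation of the HA-tagged construct is measured after 24 h treatment at 37 °C across 1 μM to 0.1 nM in 0.1% DMSO, in doxycycline-induced (1 ng/mL) cells. DC50 and Dmax come from HA fluorescence imaging.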

The next assay addresses T2, BRAF G466V (Homo sapiens, UniProt P15056, G466V).
T2 construct: expressed in transfected cells
Briefly: Cellular assay of target protein degradation, T-Rex 293 cells stably transfected with HA-BRAF G466V (HA immunofluorescence, high content imaging). Type of assay: cell-based. The gist of the method:
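Dose range spans 30 nM to 3 pM (0.1% DMSO) over 24 hours at 37° C, in cells induced with 0.75 ng/mL doxycycline. Fixed cells are probed with anti-HA antibody overnight at 4° C, then imaged; half-maximal degradation and maximum degradation are derived.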

Where [1] appears, read: half maximal degradation, T-Rex 293 HA-BRAF V600E; read-out: BRaf V600E DC50.
Where [2] appears, read: maximum degradation observed, T-Rex 293 HA-BRAF V600E.
The mark [3] stands for this setting: half maximal degradation, T-Rex 293 HA-BRAF G466V; read-out: BRaf G466V DC50.
Where [4] appears, read: maximum degradation observed, T-Rex 293 HA-BRAF G466V.

The DC50 is the concentration giving 50% degradation. The Dmax is the largest share of the target that was removed. A low value points to a partial loss of target.

Like-named read-outs stand apart in the source and are kept apart here.

T2 sequence (P15056 whole entry G466V): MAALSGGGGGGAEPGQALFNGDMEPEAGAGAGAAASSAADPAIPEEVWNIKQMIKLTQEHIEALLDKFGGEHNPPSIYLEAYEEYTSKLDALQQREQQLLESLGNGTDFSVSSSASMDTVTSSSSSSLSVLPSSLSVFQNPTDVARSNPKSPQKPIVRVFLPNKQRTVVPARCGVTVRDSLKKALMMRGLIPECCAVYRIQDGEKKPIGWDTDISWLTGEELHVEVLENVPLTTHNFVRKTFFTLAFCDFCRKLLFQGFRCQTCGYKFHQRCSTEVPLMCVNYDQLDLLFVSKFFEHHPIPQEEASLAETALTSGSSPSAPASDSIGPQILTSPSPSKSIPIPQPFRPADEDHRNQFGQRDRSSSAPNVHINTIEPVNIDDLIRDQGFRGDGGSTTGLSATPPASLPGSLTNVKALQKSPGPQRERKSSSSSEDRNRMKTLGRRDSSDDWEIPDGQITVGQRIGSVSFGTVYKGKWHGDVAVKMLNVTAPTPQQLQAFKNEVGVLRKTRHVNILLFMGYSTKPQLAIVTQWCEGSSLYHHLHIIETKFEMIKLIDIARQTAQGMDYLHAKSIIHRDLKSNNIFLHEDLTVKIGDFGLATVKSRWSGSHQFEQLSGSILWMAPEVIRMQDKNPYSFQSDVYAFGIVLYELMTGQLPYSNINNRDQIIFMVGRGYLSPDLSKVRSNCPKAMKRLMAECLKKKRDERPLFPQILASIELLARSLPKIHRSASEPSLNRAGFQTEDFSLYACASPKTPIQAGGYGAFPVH
T1 sequence (P15056 whole entry V600E): as the sequence (P15056 whole entry G466V) above, with V466G, V600E counted along it

On to `O=C1CC[C@H](NC(=O)c2ccc(C3CCN(CC4CCN(c5ccc(-c6cnc7[nH]cc(C(=O)c8c(F)ccc(NS(=O)(=O)N9CC[C@@H](F)C9)c8F)c7c6)cc5)CC4)CC3)cc2F)C(=O)N1` [Compound 33, 4-(1-{[1-(4-{3-[2,6-difluoro-3-({[(3R)-3-fluoropyrrolidin-1-yl]sulfonyl}amino)benzoyl]-1H-pyrrolo[2,3-b]pyridin-5-yl}phenyl)piperidin-4-yl]methyl}piperidin-4-yl)-N-[(3S)-2,6-dioxopiperidin-3-yl]-2-fluorobenzamide], for which the DC50 at BRAF V600E (setting [1]) was in the range of 5 to 50 nM; at BRAF G466V (setting [3]), 1 to 10 nM. For the same compound, the values for the Dmax on BRAF V600E (setting [2]) and on BRAF G466V (setting [4]) were greater than 70% and 35 to 70%, respectively.

Consider `O=C1CC[C@H](N2Cc3cc(N4CCC(OC5CCN(c6ccc(-c7cnc8[nH]cc(C(=O)c9c(F)ccc(NS(=O)(=O)N%10CC[C@@H](F)C%10)c9F)c8c7)cc6)CC5)CC4)ccc3C2=O)C(=O)N1` [Compound 34, (3R)-N-{3-[5-(4-{4-[(1-{2-[(3S)-2,6-dioxopiperidin-3-yl]-1-oxo-2,3-dihydro-1H-isoindol-5-yl}piperidin-4-yl)oxy]piperidin-1-yl}phenyl)-1H-pyrrolo [2,3-b]pyridine-3-carbonyl]-2,4-difluorophenyl}-3-fluoropyrrolidine-1-sulfonamide], for which the figures for the half-maximal degradation concentration (DC50) on BRAF V600E (setting [1]) and at BRAF G466V (setting [3]) were 50 to 500 nM and 1 to 10 nM, respectively. The Dmax on BRAF V600E (setting [2]) and at BRAF G466V (setting [4]) was 35 to 70% in each case.

Take `O=C1CC[C@@H](N2Cc3cc(N4CCC(OC5CCN(c6ccc(-c7cnc8[nH]cc(C(=O)c9c(F)ccc(NS(=O)(=O)N%10CC[C@@H](F)C%10)c9F)c8c7)cc6)CC5)CC4)ccc3C2=O)C(=O)N1` [Compound 35, (3R)-N-{3-[5-(4-{4-[(1-{2-[(3R)-2,6-dioxopiperidin-3-yl]-1-oxo-2,3-dihydro-1H-isoindol-5-yl}piperidin-4-yl)oxy]piperidin-1-yl}phenyl)-1H-pyrrolo [2,3-b]pyridine-3-carbonyl]-2,4-difluorophenyl}-3-fluoropyrrolidine-1-sulfonamide]: the DC50 on BRAF V600E (setting [1]) lay within 5 to 50 nM; at BRAF G466V (setting [3]), 1 to 10 nM. For the same compound, the Dmax at BRAF V600E (setting [2]) is 35 to 70%; on BRAF G466V (setting [4]), greater than 70%.

For the compound `O=C1CCC(N2Cc3cc(C4CCN(CC5CCN(c6ccc(-c7cnc8[nH]cc(C(=O)c9c(F)ccc(NS(=O)(=O)N%10CC[C@@H](F)C%10)c9F)c8c7)cc6F)CC5)CC4)ccc3C2=O)C(=O)N1` (stereo partly drawn) [Compound 36, (3R)—N-[3-(5-[4-[4-([4-[2-(2,6-dioxopiperidin-3-yl)-1-oxo-3H-isoindol-5-yl]piperidin-1-yl]methyl)piperidin-1-yl]-3-fluorophenyl]-1H-pyrrolo[2,3-b]pyridine-3-carbonyl)-2,4-difluorophenyl]-3-fluoropyrrolidine-1-sulfonamide], the Dmax on BRAF V600E (setting [2]) and at BRAF G466V (setting [4]) was 35 to 70% throughout. In addition, the DC50 on BRAF V600E (read-out: BRaf V600E DC50; half maximal degradation, T-Rex 293 HA-BRAF V600E) was 5 to 50 nM; at BRAF G466V (read-out: BRaf G466V DC50; half maximal degradation, T-Rex 293 HA-BRAF G466V), less than 1 nM.

As to `O=C1CC[C@@H](NC(=O)c2ccc(N3CC4(CN(CC5CCN(c6ccc(-c7cnc8[nH]cc(C(=O)c9c(F)ccc(NS(=O)(=O)N%10CC[C@@H](F)C%10)c9F)c8c7)cc6)CC5)C4)C3)cc2F)C(=O)N1` [Compound 37, 4-(6-{[1-(4-{3-[2,6-difluoro-3-({[(3R)-3-fluoropyrrolidin-1-yl]sulfonyl}amino)benzoyl]-1H-pyrrolo[2,3-b]pyridin-5-yl}phenyl)piperidin-4-yl]methyl}-2,6-diazaspiro[3.3]heptan-2-yl)-N-[(3R)-2,6-dioxopiperidin-3-yl]-2-fluorobenzamide], the DC50 at BRAF V600E (setting [1]) is 5 to 50 nM; at BRAF G466V (setting [3]), 1 to 10 nM. The Dmax was less than 35% on BRAF V600E (setting [2]) and 35 to 70% at BRAF G466V (setting [4]).

Regarding `O=C1CC[C@H](N2Cc3cc(/C=C/CN4CC5(C4)CN(c4ccc(-c6cnc7[nH]cc(C(=O)c8c(F)ccc(NS(=O)(=O)N9CC[C@@H](F)C9)c8F)c7c6)cc4)C5)ccc3C2=O)C(=O)N1` [Compound 38, (3R)-N-{3-[5-(4-{6-[(2E)-3-{2-[(3S)-2,6-dioxopiperidin-3-yl]-1-oxo-2,3-dihdyro-1H-isoindol-5-yl}prop-2-en-1-yl]-2,6-diazaspiro[3.3]heptan-2-yl}phenyl)-1H-pyrrolo[2,3-b]pyridine-3-carbonyl]-2,4-difluorophenyl}-3-fluoropyrrolidine-1-sulfonamide], the values for the 50% degradation concentration (DC50) on BRAF V600E (setting [1]) and at BRAF G466V (setting [3]) were 5 to 50 nM and less than 1 nM, respectively. The Dmax at BRAF V600E (setting [2]) and on BRAF G466V (setting [4]) was 35 to 70% throughout.

As to `O=C1CC[C@@H](N2Cc3cc(/C=C/CN4CC5(C4)CN(c4ccc(-c6cnc7[nH]cc(C(=O)c8c(F)ccc(NS(=O)(=O)N9CC[C@@H](F)C9)c8F)c7c6)cc4)C5)ccc3C2=O)C(=O)N1` [Compound 39, (3R)-N-{3-[5-(4-{6-[(2E)-3-{2-[(3R)-2,6-dioxopiperidin-3-yl]-1-oxo-2,3-dihydro-1H-isoindol-5-yl}prop-2-en-1-yl]-2,6-diazaspiro[3.3]heptan-2-yl}phenyl)-1H-pyrrolo[2,3-b]pyridine-3-carbonyl]-2,4-difluorophenyl}-3-fluoropyrrolidine-1-sulfonamide], the DC50 at BRAF V600E (setting [1]) is 5 to 50 nM; on BRAF G466V (setting [3]) it was less than 1 nM. Further, the greatest degradation seen (Dmax) on BRAF V600E (setting [2]) and on BRAF G466V (setting [4]) was 35 to 70% each time.

In the case of `O=C1CC[C@H](N2Cc3cc(N4CCC(CN5CCN(c6ccc(-c7cnc8[nH]cc(C(=O)c9c(F)ccc(NS(=O)(=O)N%10CC[C@@H](F)C%10)c9F)c8c7)cc6)CC5)CC4)c(F)cc3C2=O)C(=O)N1` [Compound 40, (3R)-N-{3-[5-(4-{4-[(1-{2-[(3S)-2,6-dioxopiperidin-3-yl]-6-fluoro-1-oxo-2,3-dihydro-1H-isoindol-5-yl}piperidin-4-yl)methyl]piperazin-1-yl}phenyl)-1H-pyrrolo[2,3-b]pyridine-3-carbonyl]-2,4-difluorophenyl}-3-fluoropyrrolidine-1-sulfonamide], the values for the half-maximal degradation concentration (DC50) on BRAF V600E (setting [1]) and on BRAF G466V (setting [3]) were 5 to 50 nM and 1 to 10 nM, respectively. Moreover, the Dmax on BRAF V600E (setting [2]) and at BRAF G466V (setting [4]) was 35 to 70% in each case.

`O=C1CC[C@@H](N2Cc3cc(N4CCC(CN5CCN(c6ccc(-c7cnc8[nH]cc(C(=O)c9c(F)ccc(NS(=O)(=O)N%10CC[C@@H](F)C%10)c9F)c8c7)cc6)CC5)CC4)c(F)cc3C2=O)C(=O)N1` [Compound 41, (3R)-N-{3-[5-(4-{4-[(1-{2-[(3R)-2,6-dioxopiperidin-3-yl]-6-fluoro-1-oxo-2,3-dihydro-1H-isoindol-5-yl}piperidin-4-yl)methyl]piperazin-1-yl}phenyl)-1H-pyrrolo[2,3-b]pyridine-3-carbonyl]-2,4-difluorophenyl}-3-fluoropyrrolidine-1-sulfonamide]: the half-maximal degradation concentration (DC50) is greater than 500 nM at BRAF V600E (setting [1]) and 1 to 10 nM at BRAF G466V (setting [3]). In addition, the greatest degradation seen (Dmax) on BRAF V600E (setting [2]) is greater than 70%; at BRAF G466V (setting [4]) it was 35 to 70%.

As for `O=C1CCC(N2Cc3cc(N4CC5(CN(CC#Cc6ccc(-c7cnc8[nH]cc(C(=O)c9c(F)ccc(NS(=O)(=O)N%10CC[C@@H](F)C%10)c9F)c8c7)cc6)C5)C4)ccc3C2=O)C(=O)N1` (stereo partly drawn) [Compound 42, (3R)-N-(3-{5-[4-(3-{6-[2-(2,6-dioxopiperidin-3-yl)-1-oxo-2,3-dihydro-1H-isoindol-5-yl]-2,6-diazaspiro[3.3]heptan-2-yl}prop-1-yn-1-yl)phenyl]-1H-pyrrolo [2,3-b]pyridine-3-carbonyl}-2,4-difluorophenyl)-3-fluoropyrrolidine-1-sulfonamide], the DC50 on BRAF V600E (setting [1]) lay within 5 to 50 nM; at BRAF G466V (setting [3]), 1 to 10 nM. The Dmax at BRAF V600E (setting [2]) and at BRAF G466V (setting [4]) was 35 to 70% each time.

As to `O=C1CCC(N2Cc3cc(OC4CC5(C4)CN(c4ccc(-c6cnc7[nH]cc(C(=O)c8c(F)ccc(NS(=O)(=O)N9CC[C@@H](F)C9)c8F)c7c6)cc4)C5)ccc3C2=O)C(=O)N1` (stereo partly drawn) [Compound 43, (3R)-N-(3-{5-[4-(6-{[2-(2,6-dioxopiperidin-3-yl)-1-oxo-2,3-dihydro-1H-isoindol-5-yl]oxy}-2-azaspiro[3.3]heptan-2-yl)phenyl]-1H-pyrrolo[2,3-b]pyridine-3-carbonyl}-2,4-difluorophenyl)-3-fluoropyrrolidine-1-sulfonamide], the values for the DC50 on BRAF V600E (setting [1]) and on BRAF G466V (setting [3]) were 50 to 500 nM and 10 to 30 nM, respectively. Besides, the Dmax on BRAF V600E (setting [2]) and on BRAF G466V (setting [4]) was 35 to 70% each time.

For the compound `COc1cc(OCCN2CCN(CCOc3ccc(-c4cnc5[nH]cc(C(=O)c6c(F)ccc(NS(=O)(=O)N7CC[C@@H](F)C7)c6F)c5c4)cc3)CC2)cc2c1C(=O)N([C@H]1CCC(=O)NC1=O)C2` [Compound 44, (3R)-N-(3-{5-[4-(2-{4-[2-({2-[(3S)-2,6-dioxopiperidin-3-yl]-7-methoxy-1-oxo-2,3-dihydro-1H-isoindol-5-yl}oxy)ethyl]piperazin-1-yl}ethoxy)phenyl]-1H-pyrrolo[2,3-b]pyridine-3-carbonyl}-2,4-difluorophenyl)-3-fluoropyrrolidine-1-sulfonamide], the 50% degradation concentration (DC50) on BRAF V600E (setting [1]) is 5 to 50 nM; at BRAF G466V (setting [3]), less than 1 nM. Further, the Dmax at BRAF V600E (setting [2]) and at BRAF G466V (setting [4]) was 35 to 70% throughout.
